target: T1, full length human recombinant glucocorticoid receptor (Homo sapiens, UniProt P04150); assay: Glucocorticoid Receptor Binding Assay (Glucocorticoid Receptor Competitor Assay far red kit, fluorescence polarization); conditions: competition with fluorescent GR ligand Fluormone GS Far Red, 3 hours at 22° C., pH 7.4; Ki calculated from IC50 by Cheng-Prusoff
T1 construct: It contains some partially purified full length human recombinant glucocorticoid receptor; purchased Panvera/Invitrogen PV4302
T1 sequence (P04150 1-777): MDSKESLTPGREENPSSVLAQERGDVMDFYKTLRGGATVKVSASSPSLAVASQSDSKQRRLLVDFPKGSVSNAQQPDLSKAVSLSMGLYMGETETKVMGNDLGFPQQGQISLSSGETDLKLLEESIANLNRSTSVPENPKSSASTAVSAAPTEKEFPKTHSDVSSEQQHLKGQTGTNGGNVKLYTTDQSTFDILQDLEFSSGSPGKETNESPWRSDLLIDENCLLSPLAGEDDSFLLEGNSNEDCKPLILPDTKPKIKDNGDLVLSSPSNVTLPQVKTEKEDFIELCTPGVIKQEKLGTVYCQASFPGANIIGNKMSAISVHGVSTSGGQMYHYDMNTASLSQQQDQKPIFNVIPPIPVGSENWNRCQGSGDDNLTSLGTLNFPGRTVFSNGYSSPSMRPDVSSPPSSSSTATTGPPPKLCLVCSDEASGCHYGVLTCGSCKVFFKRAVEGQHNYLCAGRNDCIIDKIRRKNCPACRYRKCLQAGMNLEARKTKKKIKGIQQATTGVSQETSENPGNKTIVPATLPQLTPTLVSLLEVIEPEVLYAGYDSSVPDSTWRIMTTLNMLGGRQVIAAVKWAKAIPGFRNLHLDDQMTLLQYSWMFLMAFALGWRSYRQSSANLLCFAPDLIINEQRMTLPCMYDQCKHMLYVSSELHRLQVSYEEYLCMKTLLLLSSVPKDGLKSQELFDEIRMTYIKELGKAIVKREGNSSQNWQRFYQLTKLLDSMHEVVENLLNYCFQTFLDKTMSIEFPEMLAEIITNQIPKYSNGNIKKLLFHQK
Outline: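 Fluorescence polarization competition with partially purified full-length human recombinant GR, stabilizing peptide and Fluormone GS Far Red tracer in screening buffer pH 7.4; 3 hours at 22° C in the dark, read at 610–660 nm. IC50 from sigmoidal fit; Ki by Cheng-Prusoff.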

SMILES	Ki
C[C@H](c1ccc(Oc2ccc(C(=O)O)c(Cl)c2)cc1Cl)[C@@](O)(c1ccc2[nH]c(=O)cc(C(F)(F)F)c2c1)C(F)(F)F (stereo in doubt) [Example 140, 2-Chloro-4-{3-chloro-4-[3,3,3-trifluoro-2-hydroxy-1-methyl-2-(2-oxo-4-trifluoromethyl-1,2-dihydro-quinolin-6-yl)-propyl]-phenoxy}-benzoic acid]	22 nM
Cc1cc([C@@](O)([C@@H](C)c2ccc(Oc3ccc(C(=O)O)c(F)c3)cc2Cl)C(F)(F)F)cc(C)c1C#N (stereo in doubt) [Example 142, 4-{3-Chloro-4-[2-(4-cyano-3,5-dimethyl-phenyl)-3,3,3-trifluoro-2-hydroxy-1-methyl-propyl]-phenoxy}-2-fluoro-benzoic acid]	2.1 nM
COC(=O)c1ccc(Oc2ccc([C@H](C)[C@](O)(c3cc(C)c(C#N)c(C)c3)C(F)(F)F)c(Cl)c2)cc1Cl (stereo in doubt) [Example 143, 2-Chloro-4-{3-chloro-4-[2-(4-cyano-3,5-dimethyl-phenyl)-3,3,3-trifluoro-2-hydroxy-1-methyl-propyl]-phenoxy}-benzoic acid methyl ester]	1.7 nM
COC(=O)c1cnc(Oc2ccc([C@H](C)[C@](O)(c3cc(C)c(C#N)c(C)c3)C(F)(F)F)c(Cl)c2)cc1C(F)(F)F (stereo in doubt) [Example 145, 6-{3-Chloro-4-[2-(4-cyano-3,5-dimethyl-phenyl)-3,3,3-trifluoro-2-hydroxy-1-methyl-propyl]phenoxy}-4-trifluoromethyl-nicotinic acid methyl ester]	3.1 nM
Cc1cc([C@@](O)([C@@H](C)c2ccc(Oc3cc(C(F)(F)F)c(C(=O)O)cn3)cc2Cl)C(F)(F)F)cc(C)c1C#N (stereo in doubt) [Example 146, 6-{3-Chloro-4-[2-(4-cyano-3,5-dimethyl-phenyl)-3,3,3-trifluoro-2-hydroxy-1-methyl-propyl]-phenoxy}-4-trifluoromethyl-nicotinic acid]	1.4 nM
COC(=O)c1ccc(Oc2ccc([C@H](C)[C@](O)(c3cc(C)c(C#N)c(C)c3)C(F)(F)F)c(Cl)c2)nc1 (stereo in doubt) [Example 147, 6-{3-Chloro-4-[2-(4-cyano-3,5-dimethyl-phenyl)-3,3,3-trifluoro-2-hydroxy-1-methyl-propyl]-phenoxy}-nicotinic acid methyl ester]	2.8 nM
Cc1cc([C@@](O)([C@@H](C)c2ccc(Oc3ccc(C(=O)O)cn3)cc2Cl)C(F)(F)F)cc(C)c1C#N (stereo in doubt) [Example 148, 6-{3-Chloro-4-[2-(4-cyano-3,5-dimethyl-phenyl)-3,3,3-trifluoro-2-hydroxy-1-methyl-propyl]-phenoxy}-nicotinic acid]	1.6 nM
COC(=O)c1cnc(Oc2ccc([C@H](C)[C@](O)(c3cc(C)c(C#N)c(C)c3)C(F)(F)F)c(Cl)c2)c(Cl)c1 (stereo in doubt) [Example 149, 5-Chloro-6-{3-chloro-4-[2-(4-cyano-3,5-dimethyl-phenyl)-3,3,3-trifluoro-2-hydroxy-1-methyl-propyl]-phenoxy}-nicotinic acid methyl ester]	1.7 nM
Cc1cc([C@@](O)([C@@H](C)c2ccc(Oc3ncc(C(=O)O)cc3Cl)cc2Cl)C(F)(F)F)cc(C)c1C#N (stereo in doubt) [Example 150, 5-Chloro-6-{3-chloro-4-[2-(4-cyano-3,5-dimethyl-phenyl)-3,3,3-trifluoro-2-hydroxy-1-methyl-propyl]-phenoxy}-nicotinic acid]	1.3 nM
C[C@H](c1ccc(-c2ccc(F)c(C(=O)O)c2)cc1Cl)[C@@](O)(c1ccc(C#N)cc1)C(F)(F)F (stereo in doubt) [Example 151, 3′-Chloro-4′-[2-(4-cyano-phenyl)-3,3,3-trifluoro-2-hydroxy-1-methyl-propyl]-4-fluoro-biphenyl-3-carboxylic acid]	18.5 nM
C[C@H](c1ccc(-c2ccc(F)c(C(=O)O)c2)cc1Cl)[C@@](O)(c1cccc(C#N)c1)C(F)(F)F (stereo in doubt) [Example 154, 3′-Chloro-4′-[2-(3-cyano-phenyl)-3,3,3-trifluoro-2-hydroxy-1-methyl-propyl]-4-fluoro-biphenyl-3-carboxylic acid]	33.7 nM
C[C@H](c1ccc(Oc2ccc(C(=O)O)cn2)cc1Cl)[C@@](O)(c1ccc(C#N)cc1)C(F)(F)F (stereo in doubt) [Example 157, 6-{3-Chloro-4-[2-(4-cyano-phenyl)-3,3,3-trifluoro-2-hydroxy-1-methyl-propyl]-phenoxy}-nicotinic acid]	19.8 nM
C[C@H](c1ccc(-c2ccc(C(=O)O)c(F)c2)cc1Cl)[C@@](O)(c1ccc2c(c1)OCC(=O)N2C)C(F)(F)F (stereo in doubt) [Example 164, 3′-Chloro-3-fluoro-4′-[3,3,3-trifluoro-2-hydroxy-1-methyl-2-(4-methyl-3-oxo-3,4-dihydro-2H-benzo[1,4]oxazin-7-yl)-propyl]-biphenyl-4-carboxylic acid]	7.5 nM
C[C@H](c1ccc(Oc2ncc(C(=O)O)cc2Cl)cc1Cl)[C@@](O)(c1ccc2c(c1)OCC(=O)N2C)C(F)(F)F (stereo in doubt) [Example 165, 5-Chloro-6-{3-chloro-4-[3,3,3-trifluoro-2-hydroxy-1-methyl-2-(4-methyl-3-oxo-3,4-dihydro-2H-benzo[1,4]oxazin-7-yl)-propyl]-phenoxy}-nicotinic acid]	0.9 nM
C[C@H](c1ccc(Oc2ccc(C(=O)O)c(F)c2)cc1Cl)[C@@](O)(c1ccc2c(c1)OCC(=O)N2C)C(F)(F)F (stereo in doubt) [Example 166, 4-{3-Chloro-4-[3,3,3-trifluoro-2-hydroxy-1-methyl-2-(4-methyl-3-oxo-3,4-dihydro-2H-benzo[1,4]oxazin-7-yl)-propyl]phenoxy}-2-fluoro-benzoic acid]	2.7 nM
C[C@H](c1ccc(-c2ccc(C(=O)O)c(F)c2)cc1Cl)[C@@](O)(c1ccc2c(c1)N(C)CCO2)C(F)(F)F (stereo in doubt) [Example 170, 3′-Chloro-3-fluoro-4′-[3,3,3-trifluoro-2-hydroxy-1-methyl-2-(4-methyl-3,4-dihydro-2H-benzo[1,4]oxazin-6-yl)-propyl]-biphenyl-4-carboxylic acid]	210 nM
COc1ccc([C@@H](C)[C@@](O)(c2ccc3oc(=O)n(C)c3c2)C(F)(F)F)c(Cl)c1 (stereo in doubt) [Example 171, 5-[2-(2-Chloro-4-methoxy-phenyl)-1-hydroxy-1-trifluoromethyl-propyl]-3-methyl-3H-benzooxazol-2-one]	0.4 nM
C[C@H](c1ccc(Oc2ccc(C(=O)O)c(F)c2)cc1Cl)[C@@](O)(c1ccc2oc(=O)n(C)c2c1)C(F)(F)F (stereo in doubt) [Example 177, 4-{3-Chloro-4-[3,3,3-trifluoro-2-hydroxy-1-methyl-2-(3-methyl-2-oxo-2,3-dihydro-benzooxazol-5-yl)-propyl]-phenoxy}-2-fluoro-benzoic acid]	1.3 nM
C[C@H](c1ccc(-c2cccc(C(=O)O)c2)cc1Cl)[C@@](O)(c1ccc2c(c1)oc(=O)n2C)C(F)(F)F (stereo in doubt) [Example 179, 3′-Chloro-4′-[3,3,3-trifluoro-2-hydroxy-1-methyl-2-(3-methyl-2-oxo-2,3-dihydro-benzooxazol-6-yl)-propyl]-biphenyl-3-carboxylic acid]	13.3 nM
C[C@H](c1ccc(Oc2ncc(C(=O)O)cc2Cl)cc1Cl)[C@@](O)(c1ccc2oc(=O)n(C)c2c1)C(F)(F)F (stereo in doubt) [Example 180, 5-Chloro-6-{3-chloro-4-[3,3,3-trifluoro-2-hydroxy-1-methyl-2-(3-methyl-2-oxo-2,3-dihydro-benzooxazol-5-yl)-propyl]-phenoxy}-nicotinic acid]	1 nM
C[C@H](c1ccc(Oc2ccc(C(=O)O)cn2)cc1Cl)[C@@](O)(c1ccc2oc(=O)n(C)c2c1)C(F)(F)F (stereo in doubt) [Example 181, 6-{3-Chloro-4-[3,3,3-trifluoro-2-hydroxy-1-methyl-2-(3-methyl-2-oxo-2,3-dihydro-benzooxazol-5-yl)-propyl]-phenoxy}-nicotinic acid]	0.5 nM
COC(=O)c1ccc(Oc2ccc([C@@H](C)[C@@](O)(c3ccc4oc(=O)n(C)c4c3)C(F)(F)F)c(Cl)c2)nc1Cl (stereo in doubt) [Example 182, 2-Chloro-6-{3-chloro-4-[3,3,3-trifluoro-2-hydroxy-1-methyl-2-(3-methyl-2-oxo-2,3-dihydro-benzooxazol-5-yl)-propyl]-phenoxy}-nicotinic acid methyl ester]	3.3 nM
COc1ccc(Cl)c([C@@H](C)[C@@](O)(c2ccc3oc(=O)n(C)c3c2)C(F)(F)F)c1 (stereo in doubt) [Example 192, 5-[2-(2-Chloro-5-methoxy-phenyl)-1-hydroxy-1-trifluoromethyl-propyl]-3-methyl-3H-benzooxazol-2-one]	0.8 nM

Source: patent publication US8450313B2, “2,3-diaryl- or heteroaryl-substituted 1,1,1-trifluoro-2-hydroxypropyl compounds” (Hoffmann-La Roche Inc., priority 2009, dated 2013)
